Experimental data from PubChem BioAssay AID272 (DTP/NCI, 2004).
“And” between values parts separate entries of the source, which are not always exact repeats. Equal values may be shown once. Inconclusive results are not listed.

System: Lewis lung carcinoma i.m., BDF1 mice, T/C %
Assay: NCI In Vivo Anticancer Drug Screen. Data for tumor model Lewis Lung Carcinoma (intramuscular) in B6D2F1 (BDF1) mice
Outline: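 Tumour-bearing mice were dosed with compound, and either their survival or their tumour size was measured. Results were expressed relative to vehicle-treated controls as T/C.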

For Cc1c(N)nc([C@H](CC(N)=O)NC[C@H](N)C(N)=O)nc1C(=O)N[C@H](C(=O)N[C@H](C)[C@@H](O)[C@H](C)C(=O)N[C@H](C(=O)NCCc1nc(-c2nc(C(=O)NCCC[S+](C)C)cs2)cs1)[C@@H](C)O)C(OC1OC(CO)C(O)C(O)C1OC1OC(CO)C(O)C(OC(N)=O)C1O)c1cnc[nH]1 (stereo partly specified), the T/C (endpoint: mean tumor weight (est.), dose: 2.5 mg/kg/injection, schedule: Q01DX009 (ip), vehicle: saline, higher = larger tumour) was 44 % of control, the T/C (endpoint: mean tumor weight (est.), dose: 8.4 mg/kg/injection, schedule: Q01DX009 (ip), vehicle: saline, higher = larger tumour) was 24 % of control and 42 % of control and the T/C (endpoint: mean tumor weight (est.), dose: 14.0 mg/kg/injection, schedule: Q01DX009 (ip), vehicle: saline, higher = larger tumour) was 27 % of control and 37 % of control. The T/C (endpoint: mean tumor weight (est.), dose: 23.0 mg/kg/injection, schedule: Q01DX009 (ip), vehicle: saline, higher = larger tumour) was 14 % of control and 26 % of control, the T/C (endpoint: mean tumor weight (est.), dose: 39.0 mg/kg/injection, schedule: Q01DX009 (ip), vehicle: saline, higher = larger tumour) was 12 % of control and the T/C (endpoint: mean tumor weight, dose: 3.0 mg/kg/injection, schedule: Q01DX011 (ip), vehicle: saline, higher = larger tumour) was 38 % of control. For the same compound, the T/C (endpoint: mean tumor weight, dose: 3.75 mg/kg/injection, schedule: Q01DX011 (sc), vehicle: saline, higher = larger tumour) was 60 % of control, the T/C (endpoint: mean tumor weight, dose: 4.0 mg/kg/injection, schedule: Q01DX011 (ip), vehicle: saline, higher = larger tumour) was 18 % of control and the T/C (endpoint: mean tumor weight, dose: 5.0 mg/kg/injection, schedule: Q01DX011 (ip), vehicle: saline, higher = larger tumour) was 12 % of control and 15 % of control. For the same compound, the T/C (endpoint: mean tumor weight, dose: 6.0 mg/kg/injection, schedule: Q01DX011 (ip), vehicle: saline, higher = larger tumour) was 19 % of control, the T/C (endpoint: mean tumor weight, dose: 7.5 mg/kg/injection, schedule: Q01DX011 (sc), vehicle: saline, higher = larger tumour) was 23 % of control and the T/C (endpoint: mean tumor weight, dose: 8.4 mg/kg/injection, schedule: Q01DX011 (ip), vehicle: saline, higher = larger tumour) was 7 % of control. The T/C (endpoint: mean tumor weight, dose: 8.5 mg/kg/injection, schedule: Q01DX011 (ip), vehicle: saline, higher = larger tumour) was 19 % of control, the T/C (endpoint: mean tumor weight, dose: 10.0 mg/kg/injection, schedule: Q04DX003 (ip), vehicle: saline, higher = larger tumour) was 56 % of control and the T/C (endpoint: mean tumor weight, dose: 12.5 mg/kg/injection, schedule: Q04DX003 (ip), vehicle: saline, higher = larger tumour) was 23 % of control. The T/C (endpoint: mean tumor weight, dose: 14.0 mg/kg/injection, schedule: Q01DX011 (ip), vehicle: saline, higher = larger tumour) was 6 % of control, the T/C (endpoint: mean tumor weight, dose: 18.0 mg/kg/injection, schedule: Q04DX003 (ip), vehicle: saline, higher = larger tumour) was 35 % of control and the T/C (endpoint: mean tumor weight, dose: 20.0 mg/kg/injection, schedule: Q01DX011 (ip), vehicle: saline, higher = larger tumour) was 2 % of control and 12 % of control. The T/C (endpoint: mean tumor weight, dose: 20.0 mg/kg/injection, schedule: Q04DX003 (ip), vehicle: saline, higher = larger tumour) was 43 % of control, the T/C (endpoint: mean tumor weight, dose: 23.0 mg/kg/injection, schedule: Q01DX011 (ip), vehicle: saline, higher = larger tumour) was 5 % of control and the T/C (endpoint: mean tumor weight, dose: 23.0 mg/kg/injection, schedule: Q04DX003 (ip), vehicle: saline, higher = larger tumour) was 40 % of control. For the same compound, the T/C (endpoint: mean tumor weight, dose: 25.0 mg/kg/injection, schedule: Q01DX001 (ip), vehicle: saline, higher = larger tumour) was 51 % of control, the T/C (endpoint: mean tumor weight, dose: 25.0 mg/kg/injection, schedule: Q04DX003 (ip), vehicle: saline, higher = larger tumour) was 18 % of control and the T/C (endpoint: mean tumor weight, dose: 36.0 mg/kg/injection, schedule: Q01DX001 (ip), vehicle: saline, higher = larger tumour) was 65 % of control. The T/C (endpoint: mean tumor weight, dose: 36.0 mg/kg/injection, schedule: Q04DX003 (ip), vehicle: saline, higher = larger tumour) was 18 % of control, the T/C (endpoint: mean tumor weight, dose: 39.0 mg/kg/injection, schedule: Q04DX003 (ip), vehicle: saline, higher = larger tumour) was 19 % of control and the T/C (endpoint: mean tumor weight, dose: 40.0 mg/kg/injection, schedule: Q04DX003 (ip), vehicle: saline, higher = larger tumour) was 31 % of control. The T/C (endpoint: mean tumor weight, dose: 51.0 mg/kg/injection, schedule: Q01DX001 (ip), vehicle: saline, higher = larger tumour) was 35 % of control, the T/C (endpoint: median survival time, dose: 2.0 mg/kg/injection, schedule: Q01DX011 (ip), vehicle: saline, higher = longer survival) was 153 % of control and the T/C (endpoint: median survival time, dose: 2.5 mg/kg/injection, schedule: Q01DX014 (ip), vehicle: saline, higher = longer survival) was 113 % of control. For the same compound, the T/C (endpoint: median survival time, dose: 3.0 mg/kg/injection, schedule: Q01DX004 (ip), vehicle: saline, higher = longer survival) was 116 % of control, the T/C (endpoint: median survival time, dose: 3.0 mg/kg/injection, schedule: Q09DX009 (ip), vehicle: saline, higher = longer survival) was 119 % of control and 120 % of control and the T/C (endpoint: median survival time, dose: 3.75 mg/kg/injection, schedule: Q01DX011 (sc), vehicle: saline, higher = longer survival) was 158 % of control. For the same compound, the T/C (endpoint: median survival time, dose: 4.0 mg/kg/injection, schedule: Q01DX011 (ip), vehicle: saline, higher = longer survival) was 119 % of control, the T/C (endpoint: median survival time, dose: 5.0 mg/kg/injection, schedule: Q01DX004 (ip), vehicle: saline, higher = longer survival) was 123 % of control and the T/C (endpoint: median survival time, dose: 5.0 mg/kg/injection, schedule: Q01DX009 (ip), vehicle: none, higher = longer survival) was 150 % of control and 163 % of control.
